Results published in PubChem BioAssay (NCI).
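Method: 48-hour compound exposure of cells in 96-well plates, five concentrations, linear interpolation of endpoints. Abbreviation: GI50, concentration required for 50% inhibition of growth. TGI marks complete inhibition of growth.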

Assays:
Assay in all cases: NCI-60 cell line screen, 48 h; in the data active = GI50 below about 0.43 µM; inactive = the rest
[1] = tested on: SW-620 colon
[2] = tested on: MDA-MB-231 breast
[3] = tested on: SK-MEL-2 melanoma
[4] = tested on: HCT-116 colon
[5] = tested on: NCI-H23 lung
[6] = tested on: SK-MEL-5 melanoma
[7] = tested on: SF-268 CNS
[8] = tested on: LOX IMVI melanoma
[9] = tested on: MDA-MB-435
[10] = tested on: M14 melanoma
[11] = tested on: EKVX NSCLC
[12] = tested on: HS 578T breast
[13] = tested on: A549 NSCLC
[14] = tested on: SK-OV-3 ovarian
[15] = tested on: SF-295 CNS
[16] = tested on: MCF7 breast
[17] = tested on: CCRF-CEM leukemia
[18] = tested on: T-47D breast
[19] = tested on: U251 CNS
[20] = tested on: RPMI-8226 leukemia
[21] = tested on: HL-60(TB) leukemia
[22] = tested on: HCC-2998 colon
[23] = tested on: 786-0 renal
[24] = tested on: HCT-15 colon
[25] = tested on: COLO 205 colon
[26] = tested on: OVCAR-4 ovarian
[27] = tested on: A498 renal
[28] = tested on: NCI-H460 lung
[29] = tested on: NCI-H522 lung
[30] = tested on: KM12 colon
[31] = tested on: ACHN renal
[32] = tested on: K-562 leukemia
[33] = tested on: UACC-257 melanoma
[34] = tested on: NCI/ADR-RES ovarian
[35] = tested on: UACC-62 melanoma
[36] = tested on: OVCAR-8 ovarian
[37] = tested on: HT29 colon
[38] = tested on: DU-145 prostate
[39] = tested on: HOP-92 NSCLC
[40] = tested on: HOP-62 NSCLC
[41] = tested on: MALME-3M melanoma
[42] = tested on: UO-31 renal
[43] = tested on: MOLT-4 leukemia
[44] = tested on: BT-549 breast
[45] = tested on: TK-10 renal
[46] = tested on: SNB-19 CNS
[47] = tested on: OVCAR-5 ovarian
[48] = tested on: SF-539 CNS
[49] = tested on: NCI-H226 lung
[50] = tested on: RXF 393 renal
[51] = tested on: PC-3 prostate
[52] = tested on: IGROV1 ovarian
[53] = tested on: SN12C renal
[54] = tested on: SNB-75 CNS
[55] = tested on: SK-MEL-28 melanoma
[56] = tested on: CAKI-1 renal
[57] = tested on: SR leukemia

CC(C)(C)c1cc(NC(=O)Nc2ccc(-c3cn4c5c(sc4n3)CCc3c[nH]cc3-5)cc2)no1
3670 nM: TGI [39]
2740 nM: TGI [40]
4140 nM: TGI [20]
3150 nM: TGI [3]
1800 nM: TGI [50]
3120 nM: TGI [16]
2230 nM: TGI [25]
> 50000 nM: TGI [9] | TGI [11] | TGI [13] | TGI [17] | TGI [21] | TGI [26] | TGI [31] | TGI [32] | TGI [34] | TGI [36] | TGI [38] | TGI [43] | TGI [45] | TGI [46] | TGI [47] | TGI [49] | TGI [51] | TGI [52] | TGI [53] | TGI [56]
13900 nM: TGI [33]
4170 nM: TGI [48]
inactive: GI50 [1] 2130 nM | GI50 [2] 2000 nM | GI50 [3] 1240 nM | GI50 [4] 1700 nM | GI50 [5] 1420 nM | GI50 [6] 1020 nM | GI50 [7] 1920 nM | GI50 [8] 1300 nM | GI50 [9] 1970 nM | GI50 [10] 1450 nM | GI50 [11] 2050 nM | GI50 [12] 950 nM | GI50 [13] 2020 nM | GI50 [14] 2120 nM | GI50 [15] 738 nM | GI50 [16] 1080 nM | GI50 [17] 1790 nM | GI50 [18] 1190 nM | GI50 [19] 738 nM | GI50 [20] 1080 nM | GI50 [21] 1510 nM | GI50 [22] 1680 nM | GI50 [23] 754 nM | GI50 [24] 1190 nM | GI50 [25] 1000 nM | GI50 [26] 2620 nM | GI50 [27] 1040 nM | GI50 [28] 1570 nM | GI50 [29] 1690 nM | GI50 [30] 1550 nM | GI50 [31] 1980 nM | GI50 [32] 1240 nM | GI50 [33] 2310 nM | GI50 [34] 1890 nM | GI50 [35] 1640 nM | GI50 [36] 2480 nM | GI50 [37] 949 nM | GI50 [38] 2310 nM | GI50 [39] 1060 nM | GI50 [40] 1150 nM | GI50 [41] 1440 nM | GI50 [42] 1330 nM | GI50 [43] 1260 nM | GI50 [44] 1310 nM | GI50 [45] 3410 nM | GI50 [46] 1580 nM | GI50 [47] 2960 nM | GI50 [48] 875 nM | GI50 [49] 2280 nM | GI50 [51] 1540 nM | GI50 [52] 2360 nM | GI50 [53] 3000 nM | GI50 [54] 990 nM | GI50 [55] 1540 nM | GI50 [56] 1490 nM
5340 nM: TGI [28]
7490 nM: TGI [22]
active: GI50 [50] 333 nM
4220 nM: TGI [44]
18100 nM: TGI [2]
2940 nM: TGI [12]
3900 nM: TGI [42]
31300 nM: TGI [14]
3230 nM: TGI [8]
1740 nM: TGI [15]
2110 nM: TGI [6]
15000 nM: TGI [1]
4060 nM: TGI [41]
4900 nM: TGI [10]
1920 nM: TGI [37]
5880 nM: TGI [35]
2100 nM: TGI [23]
16500 nM: TGI [7]
6700 nM: TGI [29]
9500 nM: TGI [55]
4280 nM: TGI [24]
4010 nM: TGI [54]
6100 nM: TGI [30]
3780 nM: TGI [19]
3750 nM: TGI [18]
4870 nM: TGI [5]
2620 nM: TGI [27]
12500 nM: TGI [4]

NC(=O)c1c(NC(=O)c2cccc(C(F)(F)F)c2F)sc2c1CCC(=O)C2
39100 nM: TGI [54]
active: GI50 [4] 306 nM | GI50 [17] 212 nM | GI50 [19] 315 nM | GI50 [20] 231 nM | GI50 [31] 337 nM | GI50 [32] 231 nM | GI50 [57] 326 nM | GI50 [44] 327 nM | GI50 [51] 270 nM
> 100000 nM: TGI [3] | TGI [4] | TGI [12] | TGI [14] | TGI [15] | TGI [17] | TGI [19] | TGI [23] | TGI [27] | TGI [31] | TGI [32] | TGI [57] | TGI [38] | TGI [40] | TGI [44] | TGI [46] | TGI [51]
inactive: GI50 [3] > 100000 nM | GI50 [12] 831 nM | GI50 [14] > 100000 nM | GI50 [15] 3090 nM | GI50 [23] 2200 nM | GI50 [27] > 100000 nM | GI50 [38] > 100000 nM | GI50 [40] 6690 nM | GI50 [46] 577 nM | GI50 [54] 2160 nM
